According to ChEMBL document CHEMBL1148121, “New seco-prezizaane-type sesquiterpenes, jiadifenin with neurotrophic activity and 1,2-dehydroneomajucin from Illicium jiadifengpi” (J Nat Prod, 2002):
Calls of active or inactive are those of the source. The calls are words filed in the database; no cut-off is given here.

Tested on: Neuron
Test: Neurotrophic activity in Sprague-Dawley rat neurons assessed as induction of neurite outgrowth at 0.1 to 10 uM after 5 days by microscopy
Assay type: functional, cell-based

SMILES	Activity
C[C@@H]1[C@H](O)C=C2[C@@]13C[C@@H](OC(=O)[C@@H]3O)[C@@]1(O)C(=O)OC[C@@]21C	Active
COC(=O)C1(O)O[C@@H]2C[C@@]13C(=CC(=O)[C@@H]3C)[C@]1(C)COC(=O)[C@]21O (mixture of isomers)	Active
